Measurements taken from publication PMC10527105, “Chirality Matters: Fine-Tuning of Novel Monoamine Reuptake Inhibitors Selectivity through Manipulation of Stereochemistry” (Biomolecules, 2023).
Where two headings read alike, the source gives them in different places.

Experiments:
Type in all cases: cell-based
[1] = molecular target: T1, human serotonin transporter/SLC6A4 (SERT) (Homo sapiens, UniProt P31645); assay: Cellular uptake experiments: [3H]-serotonin reuptake inhibition in transporter-expressing HEK293 cells
T1 construct: expressed in transfected cells; host or cells: HEK293
Procedure: (§1) Cell culture. Human embryonic kidney (HEK) 293 or SK-N-MC (human neuroblastoma) cells were grown in minimum essential medium with Earle’s salts and L-glutamine, 10% heat-inactivated fetal bovine serum, and 50 mg/L gentamicin. Cells were grown in 100- or 60-mm diameter tissue culture dishes (polystyrene, Falcon) at 37 °C under an atmosphere of 5% CO2/95% air. The human dopamine transporter/SLC6A3 (DAT), noradrenaline transporter/SLC6A2 (NET), or human serotonin transporter/SLC6A4 (SERT) cDNA was stably expressed using methods as described previously.
(§2) Cellular uptake experiments. The transporter-expressing HEK293 cells were seeded in poly-D-lysine-coated 24-well plates (1 × 10^5 cells/well) and, one day later, each well was washed with 0.5 mL uptake buffer and incubated with 0.5 mL buffer containing various concentrations of the drugs. Uptake was started by the addition of [^3H]-dopamine, [^3H]-noradrenaline, or [^3H]-serotonin at a final concentration of 1 µM (specific activity 0.14 Ci/mmol) after 5 min of preincubation. After incubation for 2.5 min (SERT-cells: 5 min) at 25 °C, it was stopped by aspirating the uptake buffer and washing each well twice with 1 mL ice-cold buffer. Nonspecific uptake was determined in the presence of 10 µM mazindol (DAT- and NET-cells) or 10 µM clomipramine (SERT-cells). The radioactivity remaining in each well was determined by incubating with 0.4 mL 1% sodium dodecyl sulphate and transferring this solution into scintillation vials containing 3 mL of scintillation cocktail (Ultima Gold MV, Packard, Dovners Grove, IL, USA). The uptake buffer consisted of (mmol/L): 4 Tris–HCl; 6.25 4-(2-hydroxyethyl)-1-piperazineethanesulfonic acid (HEPES); 120 NaCl; 5 KCl; 1.2 CaCl2; 1.2 MgSO4; 5.6 D-glucose; 0.5 ascorbic acid; pH 7.1.

[2] = molecular target: T2, human dopamine transporter/SLC6A3 (DAT) (Homo sapiens, UniProt Q01959); assay: Cellular uptake experiments: [3H]-dopamine reuptake inhibition in transporter-expressing HEK293 cells; settings: for IC50: cells stably expressing DAT, [3H]-dopamine 1 µM, screening cut-off 50 µM; for activity on DAT (reuptake inhibition), in words: at 50 µM
T2 construct: expressed in transfected cells; host or cells: HEK293
Procedure: as §1, §2

[3] = molecular target: T3, noradrenaline transporter/SLC6A2 (NET) (Homo sapiens, UniProt P23975); assay: Cellular uptake experiments: [3H]-noradrenaline reuptake inhibition in transporter-expressing HEK293 cells; settings: for activity on NET (reuptake inhibition), in words: at 50 µM / tested concentration range
T3 construct: expressed in transfected cells; host or cells: HEK293
Procedure: as §1, §2

[4] = cells stably expressing SERT; [3H]-serotonin 1 µM; screening cut-off 50 µM; read-out: Reuptake Inhibition (IC50 ± SE, µM) SERT
[5] = read-out: Reuptake Inhibition (IC50 ± SE, µM) DAT
[6] = cells stably expressing NET, [3H]-noradrenaline 1 µM, screening cut-off 50 µM, read-out: Reuptake Inhibition (IC50 ± SE, µM) NET
[7] = at 50 µM / tested concentration range
[8] = Reuptake Inhibition (IC50 ± SE, µM) SERT, cells stably expressing SERT; [3H]-serotonin 1 µM; screening cut-off 50 µM
[9] = Reuptake Inhibition (IC50 ± SE, µM) DAT
[10] = Reuptake Inhibition (IC50 ± SE, µM) NET, cells stably expressing NET, [3H]-noradrenaline 1 µM, screening cut-off 50 µM

T3 sequence (P23975 whole entry): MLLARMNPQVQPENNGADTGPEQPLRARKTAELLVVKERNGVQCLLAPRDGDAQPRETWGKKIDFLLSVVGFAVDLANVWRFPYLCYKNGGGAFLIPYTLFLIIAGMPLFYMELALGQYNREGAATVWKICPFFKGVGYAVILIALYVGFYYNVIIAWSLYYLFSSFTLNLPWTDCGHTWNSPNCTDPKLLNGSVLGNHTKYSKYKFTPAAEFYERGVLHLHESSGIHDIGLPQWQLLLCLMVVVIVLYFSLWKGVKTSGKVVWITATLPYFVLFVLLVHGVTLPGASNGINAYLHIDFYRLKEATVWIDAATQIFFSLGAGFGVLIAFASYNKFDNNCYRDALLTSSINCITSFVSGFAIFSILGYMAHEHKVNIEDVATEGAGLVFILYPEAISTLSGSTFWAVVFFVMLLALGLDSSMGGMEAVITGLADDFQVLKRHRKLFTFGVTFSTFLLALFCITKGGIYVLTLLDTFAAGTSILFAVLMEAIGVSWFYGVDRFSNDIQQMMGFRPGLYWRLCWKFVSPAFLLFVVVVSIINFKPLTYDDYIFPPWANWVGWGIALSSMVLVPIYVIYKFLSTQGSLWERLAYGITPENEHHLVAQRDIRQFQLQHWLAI
T2 sequence (Q01959 whole entry): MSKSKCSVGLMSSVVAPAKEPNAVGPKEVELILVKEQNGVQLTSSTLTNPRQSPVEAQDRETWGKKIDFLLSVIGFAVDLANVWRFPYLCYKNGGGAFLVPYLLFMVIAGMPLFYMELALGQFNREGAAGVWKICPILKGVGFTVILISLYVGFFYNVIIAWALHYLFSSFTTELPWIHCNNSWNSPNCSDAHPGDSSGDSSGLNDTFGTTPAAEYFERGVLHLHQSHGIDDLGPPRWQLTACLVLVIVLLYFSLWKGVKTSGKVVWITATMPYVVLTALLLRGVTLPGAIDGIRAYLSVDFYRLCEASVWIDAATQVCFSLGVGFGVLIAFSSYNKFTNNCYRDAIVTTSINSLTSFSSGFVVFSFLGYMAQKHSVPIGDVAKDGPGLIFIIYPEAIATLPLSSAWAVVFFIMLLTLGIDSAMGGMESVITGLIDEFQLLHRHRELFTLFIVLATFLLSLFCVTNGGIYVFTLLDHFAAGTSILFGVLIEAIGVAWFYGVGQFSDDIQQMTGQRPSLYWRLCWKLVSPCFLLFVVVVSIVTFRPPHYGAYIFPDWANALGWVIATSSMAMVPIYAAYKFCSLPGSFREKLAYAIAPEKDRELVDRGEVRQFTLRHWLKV
T1 sequence (P31645 whole entry): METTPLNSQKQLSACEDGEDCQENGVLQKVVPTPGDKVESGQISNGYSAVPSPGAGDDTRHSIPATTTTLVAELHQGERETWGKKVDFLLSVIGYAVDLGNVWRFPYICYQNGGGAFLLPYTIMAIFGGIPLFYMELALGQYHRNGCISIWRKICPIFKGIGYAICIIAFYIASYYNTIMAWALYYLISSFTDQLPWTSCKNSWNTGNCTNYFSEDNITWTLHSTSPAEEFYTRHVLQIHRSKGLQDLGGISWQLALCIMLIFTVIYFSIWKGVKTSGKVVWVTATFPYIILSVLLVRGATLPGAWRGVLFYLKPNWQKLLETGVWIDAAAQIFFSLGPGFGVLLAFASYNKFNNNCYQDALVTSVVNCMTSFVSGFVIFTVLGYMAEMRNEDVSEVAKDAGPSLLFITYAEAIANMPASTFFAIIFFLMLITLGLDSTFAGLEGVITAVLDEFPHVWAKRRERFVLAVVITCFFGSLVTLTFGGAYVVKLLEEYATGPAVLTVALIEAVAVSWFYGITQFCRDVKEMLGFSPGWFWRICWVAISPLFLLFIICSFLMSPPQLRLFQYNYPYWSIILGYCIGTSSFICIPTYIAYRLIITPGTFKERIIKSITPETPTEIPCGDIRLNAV

For `[O-][S@+](Cc1cccs1)[C@H](c1ccccc1)c1ccccc1F` [Compound 5a, (R,R)-2-((((2-fluorophenyl)(phenyl)methyl)sulfinyl)methyl)thiophene], the IC50 [1, 4] was greater than 50 µM, the IC50 [2, 5] was 32.8 ± 0.2 µM and the IC50 [3, 6] was greater than 50 µM.
`[O-][S+](Cc1cccs1)C(c1ccccc1)c1cccc(F)c1` (stereo not drawn) [Compound 5b, 2-((((3-fluorophenyl)(phenyl)methyl)sulfinyl)methyl)thiophene] gave an IC50 [1, 4] greater than 50 µM, an IC50 [2, 5] of 3.2 ± 0.4 µM and an IC50 [3, 6] greater than 50 µM.
With `[O-][S+](Cc1cccs1)C(c1ccccc1)c1ccc(F)cc1` (stereo not drawn) [Compound 5c, 2-((((4-fluorophenyl)(phenyl)methyl)sulfinyl)methyl)thiophene] the IC50 [1, 4] was greater than 50 µM, the IC50 [2, 5] was 7.8 ± 0.7 µM and the IC50 [3, 6] was greater than 50 µM.
`[O-][S@+](Cc1cccs1)[C@H](c1ccccc1)c1ccccc1Cl` [Compound 5d, (R,R)-2-((((2-chlorophenyl)(phenyl)methyl)sulfinyl)methyl)thiophene] was tested, and the “activity on SERT (reuptake inhibition), in words” value [1, 7] was “did not achieve ≥50% of radioligand displacement”, the IC50 [1, 4] was greater than 50 µM and the “activity on DAT (reuptake inhibition), in words” value [2] was “did not achieve ≥50% of radioligand displacement”. The IC50 [2, 5] was greater than 50 µM, the “activity on NET (reuptake inhibition), in words” value [3] was “did not achieve ≥50% of radioligand displacement” and the IC50 [3, 6] was greater than 50 µM.
`[O-][S@@+](Cc1cccs1)[C@H](c1ccccc1)c1cccc(Cl)c1` [Compound 5e, (S,R)-2-((((3-chlorophenyl)(phenyl)methyl)sulfinyl)methyl)thiophene] gave an IC50 [1, 8] greater than 50 µM, an IC50 [2, 9] of 3 ± 0.1 µM and an IC50 [3, 10] greater than 50 µM.
Work on `[O-][S@@+](Cc1cccs1)[C@H](c1ccccc1)c1ccc(Cl)cc1` [Compound 5f, (S,R)-2-((((4-chlorophenyl)(phenyl)methyl)sulfinyl)methyl)thiophene] yielded an IC50 [1, 8] greater than 50 µM, an IC50 [2, 9] of 12 ± 1 µM and an IC50 [3, 10] greater than 50 µM.
In the case of `[O-][S+](Cc1cccs1)C(c1ccccc1)c1ccccc1Br` (stereo not drawn) [Compound 5g, 2-((((2-bromophenyl)(phenyl)methyl)sulfinyl)methyl)thiophene], the IC50 [1, 8] is reported as greater than 50 µM, the “activity on SERT (reuptake inhibition), in words” value [1, 7] is reported as “no effect” and the IC50 [2, 9] is reported as greater than 50 µM. For the same compound, the “activity on DAT (reuptake inhibition), in words” value [2] was “no effect”, the IC50 [3, 10] was greater than 50 µM and the “activity on NET (reuptake inhibition), in words” value [3] was “no effect”.
`[O-][S@@+](Cc1cccs1)[C@H](c1ccccc1)c1cccc(Br)c1` [Compound 5h, (S,R)-2-((((3-bromophenyl)(phenyl)methyl)sulfinyl)methyl)thiophene] gave an IC50 [1, 8] greater than 50 µM, an IC50 [2, 9] of 1.8 ± 0.4 µM and an IC50 [3] greater than 50 µM.
With `[O-][S+](Cc1cccs1)C(c1ccccc1)c1ccccc1I` (stereo not drawn) [Compound 5i, 2-((((2-iodophenyl)(phenyl)methyl)sulfinyl)methyl)thiophene] the IC50 [1, 8] was greater than 50 µM, the IC50 [2, 9] was greater than 50 µM and the IC50 [3, 10] was greater than 50 µM.
`[O-][S+](Cc1cccs1)C(c1ccccc1)c1cccc(I)c1` (stereo not drawn) [Compound 5j, 2-((((3-iodophenyl)(phenyl)methyl)sulfinyl)methyl)thiophene] was tested, and the IC50 [1, 8] was greater than 50 µM, the IC50 [2, 9] was 2.09 ± 0.21 µM and the IC50 [3, 10] was greater than 50 µM.
`[O-][S@@+](Cc1cccs1)[C@H](c1ccccc1)c1ccc(I)cc1` [Compound 5k, (S,R)-2-((((4-iodophenyl)(phenyl)methyl)sulfinyl)methyl)thiophene] showed an IC50 [1, 8] greater than 50 µM, an IC50 [2, 9] of 5.1 ± 0.6 µM and an IC50 [3, 10] greater than 50 µM.
`Cc1ccccc1C(c1ccccc1)[S+]([O-])Cc1cccs1` (stereo not drawn) [Compound 5l, 2-(((phenyl(o-tolyl)methyl)sulfinyl)methyl)thiophene] was tested, and the IC50 [1, 4] was greater than 50 µM, the IC50 [2, 5] was 15.6 ± 1 µM and the IC50 [3, 6] was greater than 50 µM.
`Cc1cccc([C@@H](c2ccccc2)[S@@+]([O-])Cc2cccs2)c1` [Compound 5m, (S,R)-2-(((phenyl(m-tolyl)methyl)sulfinyl)methyl)thiophene] was tested, and the IC50 [1, 8] was greater than 50 µM, the IC50 [2, 9] was 2.2 ± 0.4 µM and the IC50 [3, 10] was greater than 50 µM.
`Cc1ccc(C(c2ccccc2)[S+]([O-])Cc2cccs2)cc1` (stereo not drawn) [Compound 5n, 2-(((phenyl(p-tolyl)methyl)sulfinyl)methyl)thiophene] gave an IC50 [1, 4] greater than 50 µM, an IC50 [2, 5] of 3.97 ± 0.21 µM and an IC50 [3, 10] greater than 50 µM.
`[O-][S+](Cc1cccs1)C(c1ccccc1)c1ccccc1C(F)(F)F` (stereo not drawn) [Compound 5o, 2-(((phenyl(2-(trifluoromethyl)phenyl)methyl)sulfinyl)methyl)thiophene] gave an IC50 [1, 8] greater than 50 µM, an IC50 [2, 9] greater than 50 µM and an IC50 [3, 10] of 25 ± 1 µM.
`[O-][S+](Cc1cccs1)C(c1ccccc1)c1cccc(C(F)(F)F)c1` (stereo not drawn) [Compound 5p, 2-(((phenyl(3-(trifluoromethyl)phenyl)methyl)sulfinyl)methyl)thiophene] gave an IC50 [1, 8] greater than 50 µM, an IC50 [2, 9] of 5 ± 1 µM and an IC50 [3, 10] greater than 50 µM.
`[O-][S+](Cc1cccs1)C(c1ccccc1)c1ccc(C(F)(F)F)cc1` (stereo not drawn) [Compound 5q, 2-(((phenyl(4-(trifluoromethyl)phenyl)methyl)sulfinyl)methyl)thiophene] gave an IC50 [1, 8] greater than 50 µM, an IC50 [2, 9] of 17 ± 2 µM and an IC50 [3, 10] greater than 50 µM.
`COc1ccccc1[C@@H](c1ccccc1)[S@+]([O-])Cc1cccs1` [Compound 5r, (R,R)-2-((((2-methoxyphenyl)(phenyl)methyl)sulfinyl)methyl)thiophene] gave an IC50 [1, 8] greater than 50 µM, an IC50 [2, 9] of 31 ± 8 µM and an IC50 [3, 10] greater than 50 µM.
`COc1cccc(C(c2ccccc2)[S+]([O-])Cc2cccs2)c1` (stereo not drawn) [Compound 5s, 2-((((3-methoxyphenyl)(phenyl)methyl)sulfinyl)methyl)thiophene] gave an IC50 [1, 8] greater than 50 µM, an IC50 [2, 9] of 2.89 ± 0.47 µM and an IC50 [3, 10] greater than 50 µM.
In the case of `COc1ccc([C@H](c2ccccc2)[S@@+]([O-])Cc2cccs2)cc1` [Compound 5t, (S,S)-2-((((4-methoxyphenyl)(phenyl)methyl)sulfinyl)methyl)thiophene], the IC50 [1, 8] is reported as greater than 50 µM, the IC50 [2, 9] is reported as 16 ± 6 µM and the IC50 [3, 10] is reported as greater than 50 µM.
Compound `[O-][S+](Cc1cccs1)C(c1ccc(F)cc1)c1ccc(Cl)cc1` (stereo not drawn) [Compound 5u, 2-((((4-chlorophenyl)(4-fluorophenyl)methyl)sulfinyl)methyl)thiophene] has an IC50 [1, 8] greater than 50 µM, an IC50 [2, 9] of 4.5 ± 1.8 µM and an IC50 [3, 10] greater than 50 µM.
In the case of `[O-][S@@+](Cc1cccs1)[C@@H](c1ccccc1)c1ccccc1F` [Compound 6a, (S,S)-2-((((2-fluorophenyl)(phenyl)methyl)sulfinyl)methyl)thiophene], the IC50 [1, 4] is reported as greater than 50 µM, the IC50 [2, 5] is reported as 13.3 ± 1.6 µM and the IC50 [3, 6] is reported as greater than 50 µM.
With `[O-][S+](Cc1cccs1)C(c1ccccc1)c1cccc(F)c1` (stereo not drawn) [Compound 6b, 2-((((3-fluorophenyl)(phenyl)methyl)sulfinyl)methyl)thiophene] the IC50 [1, 4] was greater than 50 µM, the IC50 [2, 5] was 28 ± 7 µM and the IC50 [3, 6] was greater than 50 µM.
With `[O-][S+](Cc1cccs1)C(c1ccccc1)c1ccc(F)cc1` (stereo not drawn) [Compound 6c, 2-((((4-fluorophenyl)(phenyl)methyl)sulfinyl)methyl)thiophene] the IC50 [1, 4] was greater than 50 µM, the IC50 [2, 5] was 10.1 ± 0.3 µM and the IC50 [3, 6] was greater than 50 µM.
`[O-][S@@+](Cc1cccs1)[C@@H](c1ccccc1)c1ccccc1Cl` [Compound 6d, (S,S)-2-((((2-chlorophenyl)(phenyl)methyl)sulfinyl)methyl)thiophene] showed an IC50 [1, 4] greater than 50 µM, an IC50 [2, 5] of 14.4 ± 2.4 µM and an IC50 [3, 6] greater than 50 µM.
For `[O-][S@+](Cc1cccs1)[C@@H](c1ccccc1)c1cccc(Cl)c1` [Compound 6e, (R,S)-2-((((3-chlorophenyl)(phenyl)methyl)sulfinyl)methyl)thiophene], the IC50 [1, 8] was greater than 50 µM, the IC50 [2, 9] was 14.1 ± 0.5 µM and the IC50 [3, 10] was greater than 50 µM.
`[O-][S@+](Cc1cccs1)[C@@H](c1ccccc1)c1ccc(Cl)cc1` [Compound 6f, (R,S)-2-((((4-chlorophenyl)(phenyl)methyl)sulfinyl)methyl)thiophene] showed an IC50 [1, 8] greater than 50 µM, an IC50 [2, 9] of 46 ± 1 µM and an IC50 [3, 10] greater than 50 µM.
In the case of `[O-][S+](Cc1cccs1)C(c1ccccc1)c1ccccc1Br` (stereo not drawn) [Compound 6g, 2-((((2-bromophenyl)(phenyl)methyl)sulfinyl)methyl)thiophene], the IC50 ([1]; read-out: Reuptake Inhibition (IC50 ± SE, µM) SERT; cells stably expressing SERT; [3H]-serotonin 1 µM; screening cut-off 50 µM) is reported as greater than 50 µM, the IC50 [2, 9] is reported as 12.1 ± 1 µM and the IC50 ([3]; read-out: Reuptake Inhibition (IC50 ± SE, µM) NET, cells stably expressing NET, [3H]-noradrenaline 1 µM, screening cut-off 50 µM) is reported as greater than 50 µM.
Compound `[O-][S@+](Cc1cccs1)[C@@H](c1ccccc1)c1cccc(Br)c1` [Compound 6h, (R,S)-2-((((3-bromophenyl)(phenyl)methyl)sulfinyl)methyl)thiophene] has an IC50 [1, 8] greater than 50 µM, an IC50 [2, 9] of 15 ± 1 µM and an IC50 [3] greater than 50 µM.
